One assay has as its target T1, sheep TMEM16A (Ovis aries, UniProt A0ACI6NM12).
T1 sequence (A0ACI6NM12 1-1040): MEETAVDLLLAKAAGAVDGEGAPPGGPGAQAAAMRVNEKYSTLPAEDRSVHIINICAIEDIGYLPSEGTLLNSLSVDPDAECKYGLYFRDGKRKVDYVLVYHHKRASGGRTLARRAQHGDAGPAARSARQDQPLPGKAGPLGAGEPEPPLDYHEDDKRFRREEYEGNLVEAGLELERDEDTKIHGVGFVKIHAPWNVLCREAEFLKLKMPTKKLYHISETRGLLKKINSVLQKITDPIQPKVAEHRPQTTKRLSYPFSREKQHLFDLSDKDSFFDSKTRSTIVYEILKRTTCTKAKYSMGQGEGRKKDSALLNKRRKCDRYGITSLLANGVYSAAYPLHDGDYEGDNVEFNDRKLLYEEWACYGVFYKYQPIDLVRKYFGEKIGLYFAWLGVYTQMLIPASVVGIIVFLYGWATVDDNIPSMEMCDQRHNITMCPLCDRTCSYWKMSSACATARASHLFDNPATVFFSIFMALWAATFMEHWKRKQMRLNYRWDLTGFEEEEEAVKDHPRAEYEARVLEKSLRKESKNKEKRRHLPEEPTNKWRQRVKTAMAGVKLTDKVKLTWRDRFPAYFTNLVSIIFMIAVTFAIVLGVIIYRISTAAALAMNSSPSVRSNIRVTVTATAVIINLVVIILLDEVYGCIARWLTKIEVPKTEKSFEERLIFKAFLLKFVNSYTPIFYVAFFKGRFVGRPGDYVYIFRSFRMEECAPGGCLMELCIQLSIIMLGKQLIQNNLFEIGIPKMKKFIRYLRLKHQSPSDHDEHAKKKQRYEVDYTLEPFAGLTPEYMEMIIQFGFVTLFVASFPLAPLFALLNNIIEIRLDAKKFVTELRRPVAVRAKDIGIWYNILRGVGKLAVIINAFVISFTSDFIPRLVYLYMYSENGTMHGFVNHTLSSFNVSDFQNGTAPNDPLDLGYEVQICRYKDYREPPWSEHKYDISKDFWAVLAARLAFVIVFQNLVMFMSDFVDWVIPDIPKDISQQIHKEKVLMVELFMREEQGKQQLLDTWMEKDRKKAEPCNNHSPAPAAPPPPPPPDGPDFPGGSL
Briefly: whole-cell patch clamp. Format: cell-based.

The target of the next assay is T2, TMEM16A (anoctamin-1) (Homo sapiens, UniProt Q5XXA6).
T2 sequence (Q5XXA6 1-986): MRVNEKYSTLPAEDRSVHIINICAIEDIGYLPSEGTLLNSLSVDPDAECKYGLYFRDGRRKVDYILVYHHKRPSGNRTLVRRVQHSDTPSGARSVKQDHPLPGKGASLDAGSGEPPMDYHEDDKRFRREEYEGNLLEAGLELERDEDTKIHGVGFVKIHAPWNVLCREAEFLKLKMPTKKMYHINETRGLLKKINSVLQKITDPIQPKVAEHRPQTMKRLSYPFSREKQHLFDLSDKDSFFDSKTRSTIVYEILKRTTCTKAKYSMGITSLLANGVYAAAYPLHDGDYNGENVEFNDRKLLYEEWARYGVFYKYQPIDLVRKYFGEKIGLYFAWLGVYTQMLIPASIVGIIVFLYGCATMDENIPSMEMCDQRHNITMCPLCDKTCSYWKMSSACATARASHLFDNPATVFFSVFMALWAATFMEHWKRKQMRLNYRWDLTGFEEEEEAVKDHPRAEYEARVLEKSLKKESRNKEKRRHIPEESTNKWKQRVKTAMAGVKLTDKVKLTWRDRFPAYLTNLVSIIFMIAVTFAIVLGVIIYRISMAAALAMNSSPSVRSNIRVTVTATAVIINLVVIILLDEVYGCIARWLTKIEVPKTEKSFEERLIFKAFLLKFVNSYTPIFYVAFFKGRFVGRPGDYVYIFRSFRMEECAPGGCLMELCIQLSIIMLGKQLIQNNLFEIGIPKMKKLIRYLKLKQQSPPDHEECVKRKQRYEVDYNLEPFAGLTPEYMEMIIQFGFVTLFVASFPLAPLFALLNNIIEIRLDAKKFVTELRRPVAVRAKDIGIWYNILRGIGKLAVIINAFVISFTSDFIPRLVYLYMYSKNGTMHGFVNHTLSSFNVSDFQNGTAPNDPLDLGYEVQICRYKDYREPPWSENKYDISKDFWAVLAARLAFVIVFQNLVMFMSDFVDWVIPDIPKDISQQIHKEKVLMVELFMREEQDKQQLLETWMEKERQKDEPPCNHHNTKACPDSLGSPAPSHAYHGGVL
The assay can be described thus: whole-cell patch clamp. The class given is cell-based.

The record followed here is PMC7159426 (American Journal of Respiratory and Critical Care Medicine, 2020).

Consider ETX001, for which the EC50 turned out to be 127 ± 21 nM at sheep TMEM16A and 116 ± 16 nM on TMEM16A (anoctamin-1).
